Measured values from the NIST ThermoML archive (doi:10.1021/je800942u).
± gives the expanded uncertainty stated by the source.

Key:
[1] = mn = molality of the nth substance listed, in mol/kg; settings: 101 kPa, Liquid
[2] = 101 kPa, Liquid
[3] = wn = mass fraction of the nth substance listed; settings: 101 kPa, Liquid

NCCCCCCN [1,6-hexanediamine] + CCO
[1]
Settings	mass density [kg/m3]	viscosity [mPa·s]
303.15 K, m1 = 0.1293	782.3 ± 0.8	1.011 ± 0.013
303.15 K, m1 = 0.2808	784.2 ± 0.8	1.053 ± 0.013
303.15 K, m1 = 0.4406	786.3 ± 0.8	1.102 ± 0.014
303.15 K, m1 = 0.6113	788.6 ± 0.8	1.162 ± 0.014
303.15 K, m1 = 0.7834	791.1 ± 0.8	1.202 ± 0.015
303.15 K, m1 = 0.9637	793.8 ± 0.8	1.258 ± 0.015
308.15 K, m1 = 0.1293	777.9 ± 0.8	0.9157 ± 0.012
308.15 K, m1 = 0.2808	779.7 ± 0.8	0.9505 ± 0.012
308.15 K, m1 = 0.4406	781.9 ± 0.8	0.9928 ± 0.013
308.15 K, m1 = 0.6113	784.7 ± 0.8	1.046 ± 0.013
308.15 K, m1 = 0.7834	787.3 ± 0.8	1.081 ± 0.013
308.15 K, m1 = 0.9637	790.1 ± 0.8	1.133 ± 0.014
313.15 K, m1 = 0.1293	771.6 ± 0.8	0.8341 ± 0.011
313.15 K, m1 = 0.2808	773.3 ± 0.8	0.8606 ± 0.012
313.15 K, m1 = 0.4406	775.2 ± 0.8	0.8994 ± 0.012
313.15 K, m1 = 0.6113	777.2 ± 0.8	0.9437 ± 0.012
313.15 K, m1 = 0.7834	779.3 ± 0.9	0.975 ± 0.013
313.15 K, m1 = 0.9637	781.5 ± 0.9	1.019 ± 0.013
318.15 K, m1 = 0.1293	766.4 ± 0.9	0.7569 ± 0.011
318.15 K, m1 = 0.2808	767.9 ± 0.9	0.7849 ± 0.011
318.15 K, m1 = 0.4406	769.6 ± 0.9	0.8154 ± 0.011
318.15 K, m1 = 0.6113	771.4 ± 0.9	0.8571 ± 0.012
318.15 K, m1 = 0.7834	773.3 ± 0.9	0.8816 ± 0.012
318.15 K, m1 = 0.9637	775.3 ± 0.9	0.9201 ± 0.012
323.15 K, m1 = 0.1293	761.4 ± 0.9	0.6866 ± 0.01
323.15 K, m1 = 0.2808	762.8 ± 0.9	0.7105 ± 0.01
323.15 K, m1 = 0.4406	764.3 ± 0.9	0.7356 ± 0.011
323.15 K, m1 = 0.6113	766 ± 0.9	0.7761 ± 0.011
323.15 K, m1 = 0.7834	767.8 ± 0.9	0.798 ± 0.011
323.15 K, m1 = 0.9637	769.7 ± 0.9	0.8301 ± 0.011
328.15 K, m1 = 0.1293	755.5 ± 1	0.6275 ± 0.0097
328.15 K, m1 = 0.2808	756.8 ± 1	0.6485 ± 0.0099
328.15 K, m1 = 0.4406	758.3 ± 1	0.6737 ± 0.01
328.15 K, m1 = 0.6113	759.9 ± 1	0.7013 ± 0.01
328.15 K, m1 = 0.7834	761.6 ± 1	0.7227 ± 0.01
328.15 K, m1 = 0.9637	763.4 ± 1	0.7564 ± 0.011

CCO [ethanol]
[2]
Settings	mass density [kg/m3]	viscosity [mPa·s]
303.15 K	780.8 ± 0.8	0.979 ± 0.013
308.15 K	776.5 ± 0.8	0.8877 ± 0.012
313.15 K	770.3 ± 0.8	0.8086 ± 0.011
318.15 K	765.2 ± 0.9	0.7335 ± 0.011
323.15 K	760.3 ± 0.9	0.6677 ± 0.01
328.15 K	754.5 ± 1	0.6104 ± 0.0096

CCO [ethanol] + NCCCCCCN
[1], m2 = 0
Settings	mass density [kg/m3]	viscosity [mPa·s]
303.15 K	780.8 ± 0.8	0.979 ± 0.013
308.15 K	776.5 ± 0.8	0.8877 ± 0.012
313.15 K	770.3 ± 0.8	0.8086 ± 0.011
318.15 K	765.2 ± 0.9	0.7335 ± 0.011
323.15 K	760.3 ± 0.9	0.6677 ± 0.01
328.15 K	754.5 ± 1	0.6104 ± 0.0096

CCO [ethanol] + O
[3]
Settings	mass density, w2 = 0.15 [kg/m3]	mass density, w2 = 0.2 [kg/m3]	mass density, w2 = 0.25 [kg/m3]	viscosity, w2 = 0.15 [mPa·s]	viscosity, w2 = 0.2 [mPa·s]	viscosity, w2 = 0.25 [mPa·s]
303.15 K	822.7 ± 0.8	836 ± 0.9	848.8 ± 0.9	1.383 ± 0.033	1.511 ± 0.036	1.611 ± 0.038
308.15 K	818.4 ± 0.9	831.8 ± 0.9	843 ± 0.9	1.222 ± 0.03	1.332 ± 0.032	1.402 ± 0.033
313.15 K	813.1 ± 0.9	827.1 ± 0.9	838.2 ± 0.9	1.085 ± 0.027	1.174 ± 0.029	1.229 ± 0.03
318.15 K	807.1 ± 1	821 ± 1	833.6 ± 1	0.9649 ± 0.024	1.025 ± 0.025	1.085 ± 0.027
323.15 K	801.4 ± 1	814.6 ± 1	827.5 ± 1	0.8601 ± 0.022	0.9113 ± 0.023	0.9573 ± 0.024
328.15 K	796.9 ± 1	809.1 ± 1.1	822.5 ± 1.1	0.7734 ± 0.02	0.8123 ± 0.021	0.8538 ± 0.022
